Results taken from publication PMC7125537 (Bioorganic & Medicinal Chemistry Letters, 2010).

System: DU-145 cells
Assay: Migration assay
Type: cell-based, human

With NC(=S)N/N=C(/c1cccc(Br)c1)c1ccccc1F [analog 1, 3-bromophenyl-2′-fluorophenyl thiosemicarbazone] the “inhibition of DU-145 cell migration (in words)” value was “effective inhibitor of DU-145 cell invasion and migration”.
